Test results: patent US4504580A, “Antibiotics produced by fermentation of a novel strain of Streptomyces hygroscopicus” (Bristol-Myers Company, priority 1983, dated 1985)
≈ marks a conversion by molar mass, not a printed value. Like-named read-outs stand apart in the source and are kept apart here.

What was measured:
[1] = test system: Staphylococcus aureus 209P; experiment: MIC by serial two-fold agar dilution, S. aureus 209P; format: cell-based; conditions: Mueller-Hinton agar
Protocol: (§1) The minimum inhibitory concentrations (MIC) of Bu-2659A, B, C, D and E were determined for a variety of gram-positive and gram-negative bacteria by the serial two-fold agar dilution method using the Steer's multi-inoculating apparatus. The inoculum was standardized as a 10^4 dilution of an overnight culture of the test organisms in Heart Infusion Broth (Difco). […] Reference antibiotics utilized in these tests included commercially available neomycin as well as its components, neomycins B and C [as used herein, the term "neomycin" means the commercial product containing neomycins B and C at an approximate ratio of 7:3], paromomycin [the commercial product containing >90% of paromomycin I and <10% of paromomycin II] and ribostamycin.

[2] = test system: Staphylococcus aureus Smith; experiment: MIC by serial two-fold agar dilution, S. aureus Smith; format: cell-based; conditions: Mueller-Hinton agar
Protocol: as §1

[3] = test system: Staphylococcus aureus D136; experiment: MIC by serial two-fold agar dilution, S. aureus D136; format: cell-based; conditions: Table 7; Mueller-Hinton agar
Protocol: as §1

[4] = test system: Micrococcus luteus PCI 1001; experiment: MIC by serial two-fold agar dilution, M. luteus PCI 1001; format: cell-based; conditions: Table 7; Mueller-Hinton agar
Protocol: as §1

Micrococcus flavus D12 = experiment: MIC by serial two-fold agar dilution, M. flavus D12; format: cell-based; conditions: Table 7; Mueller-Hinton agar
Protocol: as §1

[5] = test system: Bacillus subtilis PCI 219; experiment: MIC by serial two-fold agar dilution, B. subtilis PCI 219; format: cell-based; conditions: Mueller-Hinton agar
Protocol: as §1

Escherichia coli NIHJ = experiment: MIC by serial two-fold agar dilution, E. coli NIHJ; format: cell-based; conditions: Mueller-Hinton agar
Protocol: as §1

Escherichia coli Juhl [6] = experiment: MIC by serial two-fold agar dilution, E. coli Juhl; format: cell-based; conditions: Table 7; Mueller-Hinton agar
Protocol: as §1

[7] = test system: Klebsiella pneumoniae D11; experiment: MIC by serial two-fold agar dilution, K. pneumoniae D11; format: cell-based; conditions: Mueller-Hinton agar
Protocol: as §1

Proteus vulgaris A9436 = experiment: MIC by serial two-fold agar dilution, P. vulgaris A9436; format: cell-based; conditions: Mueller-Hinton agar
Protocol: as §1

Proteus mirabilis A9554 = experiment: MIC by serial two-fold agar dilution, P. mirabilis A9554; format: cell-based; conditions: Mueller-Hinton agar
Protocol: as §1

Proteus mirabilis A9906 [8] = experiment: MIC by serial two-fold agar dilution, P. mirabilis A9906; format: cell-based; conditions: Table 7; Mueller-Hinton agar
Protocol: as §1

Proteus morganii A9553 = experiment: MIC by serial two-fold agar dilution, P. morganii A9553; format: cell-based; conditions: Table 7; Mueller-Hinton agar
Protocol: as §1

Proteus rettgeri A15167 = experiment: MIC by serial two-fold agar dilution, P. rettgeri A15167; format: cell-based; conditions: Table 7; Mueller-Hinton agar
Protocol: as §1

[9] = test system: Pseudomonas aeruginosa D15; experiment: MIC by serial two-fold agar dilution, P. aeruginosa D15; format: cell-based; conditions: Table 7; Mueller-Hinton agar
Protocol: as §1

[10] = test system: Pseudomonas aeruginosa A9930; experiment: MIC by serial two-fold agar dilution, P. aeruginosa A9930; format: cell-based; conditions: Mueller-Hinton agar
Protocol: as §1

[11] = test system: Serratia marcescens A20019; experiment: MIC by serial two-fold agar dilution, S. marcescens A20019; format: cell-based; conditions: Table 7; Mueller-Hinton agar
Protocol: as §1

[12] = test system: Streptococcus pyogenes A20201; experiment: MIC by serial two-fold agar dilution, S. pyogenes A20201; format: cell-based; conditions: Table 8; GC medium
Protocol: as §1

[13] = test system: Streptococcus pneumoniae Type I; experiment: MIC by serial two-fold agar dilution, S. pneumoniae Type I; format: cell-based; conditions: Table 8; GC medium
Protocol: as §1

[14] = test system: Neisseria gonorrhoeae A20143; experiment: MIC by serial two-fold agar dilution, N. gonorrhoeae A20143; format: cell-based; conditions: Table 8; GC medium
Protocol: as §1

[15] = test system: Neisseria meningitidis A21496; experiment: MIC by serial two-fold agar dilution, N. meningitidis A21496; format: cell-based; conditions: Table 8; GC medium
Protocol: as §1

[16] = test system: Haemophilus influenzae A9729; experiment: MIC by serial two-fold agar dilution, H. influenzae A9729; format: cell-based; conditions: Table 8; GC medium
Protocol: as §1

[17] = test system: Mycobacterium smegmatis 607; experiment: MIC by serial two-fold agar dilution, M. smegmatis 607; format: cell-based; conditions: Table 8; No. 1001 medium
Protocol: as §1

Mycobacterium phlei = experiment: MIC by serial two-fold agar dilution, M. phlei; format: cell-based; conditions: Table 8; No. 1001 medium
Protocol: as §1

Mycobacterium ranae = experiment: MIC by serial two-fold agar dilution, M. ranae; format: cell-based; conditions: Table 8; No. 1001 medium
Protocol: as §1

[18] = test system: Staphylococcus aureus A20239; experiment: MIC, aminoglycoside-resistant S. aureus A20239; format: cell-based; conditions: Table 9; inactivating enzyme APH(3')-I,II; Mueller-Hinton agar
Protocol: as §1

[19] = test system: Bacillus brevis IFO 12334; experiment: MIC, aminoglycoside-resistant B. brevis IFO 12334; format: cell-based; conditions: Table 9; inactivating enzyme ANT (4'); Mueller-Hinton agar
Protocol: as §1

Escherichia coli ML 1630 = experiment: MIC, aminoglycoside-resistant E. coli ML 1630; format: cell-based; conditions: Table 9; inactivating enzyme APH(3')-I; Mueller-Hinton agar
Protocol: as §1

Escherichia coli A20107 = experiment: MIC, aminoglycoside-resistant E. coli A20107; format: cell-based; conditions: Table 9; inactivating enzyme APH(3')-II; Mueller-Hinton agar
Protocol: as §1

[20] = test system: Escherichia coli JR66/W677; experiment: MIC, aminoglycoside-resistant E. coli JR66/W677; format: cell-based; conditions: Table 9; inactivating enzymes APH(3')-II, ANT(2"); Mueller-Hinton agar
Protocol: as §1

Escherichia coli JR88 = experiment: MIC, aminoglycoside-resistant E. coli JR88; format: cell-based
Protocol: as §1

[21] = test system: Escherichia coli JR35/C600; experiment: MIC, aminoglycoside-resistant E. coli JR35/C600; format: cell-based; conditions: Table 9; inactivating enzyme APH(3')-I; Mueller-Hinton agar
Protocol: as §1

Escherichia coli A20732 = experiment: MIC, aminoglycoside-resistant E. coli A20732; format: cell-based; conditions: Table 9; inactivating enzyme ANT(2"); Mueller-Hinton agar
Protocol: as §1

[22] = test system: Escherichia coli NR79/W677; experiment: MIC, aminoglycoside-resistant E. coli NR79/W677; format: cell-based; conditions: Table 9; inactivating enzyme AAC(6')-I; Mueller-Hinton agar
Protocol: as §1

[23] = test system: Enterobacter cloacae A20364; experiment: MIC, aminoglycoside-resistant E. cloacae A20364; format: cell-based; conditions: Table 9; inactivating enzyme APH(3')-I; Mueller-Hinton agar
Protocol: as §1

[24] = test system: Pseudomonas aeruginosa A20601; experiment: MIC, aminoglycoside-resistant P. aeruginosa A20601; format: cell-based; conditions: Table 9; inactivating enzymes AAC(3)-I, APH(3')-II; Mueller-Hinton agar
Protocol: as §1

[25] = test system: Pseudomonas aeruginosa A20896; experiment: MIC, aminoglycoside-resistant P. aeruginosa A20896; format: cell-based; conditions: Table 9; inactivating enzyme AAC(3)-II; Mueller-Hinton agar
Protocol: as §1

[26] = test system: species of Streptococcus and Mycobacterium; experiment: Antibacterial activity (MIC), overall, Streptococcus and Mycobacterium, Table 8; format: cell-based
Protocol: as §1

Escherichia coli Juhl [27] = experiment: Experimental systemic infection in mice, E. coli Juhl; format: in vivo; conditions: im, single treatment, 4 days
Protocol: (§2) The in vivo activity of Bu-2659A was assessed by experimental systemic infection in mice. The pathogenic bacteria used in the in vivo tests were E. coli Juhl, K. pneumoniae D-11, P. mirabilis A9906, S. aureus Smith and S. pyogenes A20201. Mice were challenged intraperitoneally with approximately 100×LD50 dose of the pathogens in a 5% suspension of hog gastric mucin (American Laboratories, Omaha, Neb.). A single intramuscular treatment with the antibiotic was given immediately after the bacterial challenge. […] Neomycin was comparatively tested as a reference compound. […] In terms of PD50 value Bu-2659A was about one-half as active as neomycin against infections with S. aureus and S. pyogenes.

[28] = test system: Klebsiella pneumoniae D-11; experiment: Experimental systemic infection in mice, K. pneumoniae D-11; format: in vivo; conditions: im, single treatment, 4 days
Protocol: as §2

Proteus mirabilis A9906 [29] = experiment: Experimental systemic infection in mice, P. mirabilis A9906; format: in vivo; conditions: im, single treatment, 4 days
Protocol: as §2

[30] = test system: Staphylococcus aureus Smith; experiment: Experimental systemic infection in mice, S. aureus Smith; format: in vivo; conditions: im, single treatment, 4 days
Protocol: as §2

[31] = test system: Streptococcus pyogenes A20201; experiment: Experimental systemic infection in mice, S. pyogenes A20201; format: in vivo; conditions: im, single treatment, 4 days
Protocol: as §2

Acute toxicity in mice = format: in vivo; conditions: mice
Protocol: The acute toxicity of Bu-2659A was determined in mice by intravenous, intraperitoneal and subcutaneous routes. Neomycin also was tested for comparison purposes. […] The toxicity of Bu-2659A was approximately 1/3 that of neomycin in terms of LD50 values, thus presenting a potential clinical advantage for Bu-2659A.

bacteria of Table 10 = experiment: In vitro activity of Bu-2659 DP-I vs neamine, overall, Table 10; format: cell-based
Protocol: as §1
The in vitro activity of Bu-2659 DP-I (1-deamino-1-hydroxyneamine) is shown in Table 10 along with that of neamine.

Which results are given for neomycin?
MIC ([1]; Table 7): 0.4 µg/mL; MIC ([2]; Table 7): 0.8 µg/mL; MIC [3]: 0.8 µg/mL; MIC [4]: 0.8 µg/mL; MIC (Micrococcus flavus D12): 3.1 µg/mL; MIC ([5]; Table 7): < 0.05 µg/mL; MIC (Escherichia coli NIHJ; Table 7): 1.6 µg/mL; MIC (Escherichia coli Juhl [6]): 3.1 µg/mL; MIC ([7]; Table 7): 0.4 µg/mL; MIC (Proteus vulgaris A9436; Table 7): 0.8 µg/mL; MIC (Proteus mirabilis A9554; Table 7): 0.8 µg/mL; MIC (Proteus mirabilis A9906 [8]): 0.8 µg/mL; MIC (Proteus morganii A9553): 3.1 µg/mL; MIC (Proteus rettgeri A15167): 1.6 µg/mL; MIC [9]: 3.1 µg/mL; MIC ([10]; Table 7): 3.1 µg/mL; MIC [11]: 1.6 µg/mL; MIC [12]: 12.5 µg/mL; MIC [13]: 25 µg/mL; MIC [14]: > 400 µg/mL; MIC [15]: 400 µg/mL; MIC [16]: 400 µg/mL; MIC [17]: 0.4 µg/mL; MIC (Mycobacterium phlei): 0.2 µg/mL; MIC (Mycobacterium ranae): 0.4 µg/mL; MIC [18]: 25 µg/mL; MIC [19]: 25 µg/mL; MIC (Escherichia coli ML 1630): > 100 µg/mL; MIC (Escherichia coli A20107): 100 µg/mL; MIC [20]: > 100 µg/mL; MIC (Escherichia coli JR88; Table 9, inactivating enzyme AAC(3)-I, Mueller-Hinton agar): 1.6 µg/mL; MIC [21]: > 100 µg/mL; MIC (Escherichia coli A20732): 0.8 µg/mL; MIC [22]: 50 µg/mL; MIC [23]: > 100 µg/mL; MIC [24]: 12.5 µg/mL; MIC [25]: > 100 µg/mL; activity against Streptococcus and Mycobacterium, in words [26]: equivalent activity; PD50 (Escherichia coli Juhl [27]): 3.1 mg/kg; PD50 [28]: 0.9 mg/kg; PD50 (Proteus mirabilis A9906 [29]): 1.8 mg/kg; PD50 [30]: 0.31 mg/kg; PD50 [31]: 50 mg/kg; LD50 (Acute toxicity in mice; intraperitoneal): 180 mg/kg; LD50 (Acute toxicity in mice; intravenous): 34 mg/kg; LD50 (Acute toxicity in mice; subcutaneous): 280 mg/kg

Which MIC ([1]; Staphylococcus aureus, 209P, Table 10, read-out: MIC) does the source give for `NC[C@H]1O[C@H](O[C@H]2[C@H](O)[C@@H](O)[C@H](O)C[C@@H]2N)[C@H](N)[C@@H](O)[C@@H]1O` [Bu-2659 DP-I, 1-deamino-1-hydroxyneamine] here?
Its MIC is 200 µg/mL (≈ 619 µM).

What about the MIC ([2]; Staphylococcus aureus, Table 10, read-out: MIC) of the same compound?
Its MIC is 200 µg/mL (≈ 619 µM).

And the MIC ([5]; Bacillus subtilis, PCI219, Table 10, read-out: MIC)?
Its MIC is 100 µg/mL (≈ 309 µM).

What about the MIC (Escherichia coli NIHJ; Escherichia coli, Table 10, read-out: MIC) of the same compound?
Its MIC is 200 µg/mL (≈ 619 µM).

What about the MIC ([7]; Klebsiella pneumoniae, D11, Table 10, read-out: MIC) of the same compound?
The MIC was 200 µg/mL (≈ 619 µM).

And the MIC (Proteus vulgaris A9436; Proteus vulgaris, A9436, Table 10, read-out: MIC)?
The MIC was 200 µg/mL (≈ 619 µM).

And the MIC (Proteus mirabilis A9554; Proteus mirabilis, A9554, Table 10, read-out: MIC)?
Its MIC is 800 µg/mL (≈ 2470 µM).

And the MIC ([10]; Pseudomonas aeruginosa, A9930, Table 10, read-out: MIC)?
The MIC was > 800 µg/mL.

And the MIC (Escherichia coli JR88; Escherichia coli, JR88)?
The MIC was 200 µg/mL (≈ 619 µM).

And the “in vitro activity compared with neamine, in words” value (bacteria of Table 10)?
The value was “much less active than neamine”.
